Common to all, as to experiment: NCI-60 cell line screen, 48 h
The test system of assay [1] is A498.
Assay [2] deals with ACHN.
The test system of assay [3] is BT-549.
Assay [4] has as its system DU-145.
Assay [5] relates to EKVX.
In assay [6] the test system is HCC 2998.
Assay [7] relates to HCT-15.
For assay [8], the system named is IGROV-1.
Assay [9] relates to K562.
For assay [10], the system named is LOX IMVI.
The subject of assay [11] is MDA-N.
For assay [12], the system named is Malme-3M.
The subject of assay [13] is NCI/ADR-RES.
The test system of assay [14] is OVCAR-4.
Assay [15] relates to SK-MEL-28.
Assay [16] relates to T47D.
For assay [17], the system named is TK-10.
Assay [18] relates to UACC-257.
Assay [19] relates to MOLT-4.

Values joined by “and” are separate entries in the source; they are usually repeats but may differ in a detail not shown here. Identical values can stand only once.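 How tested: cells in 96-well plates exposed to compound for 48 hours at five concentrations. GI50 = concentration required for 50% inhibition of growth.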 Active and inactive are the calls of the source. Rule as the data show it: active = GI50 up to about 1.1 µM and inactive = higher.

Regarding `N=C(N)SCc1cccc(-c2nc3ccccc3c(=O)o2)c1`, the GI50 in assay [1], in assay [2], in [3], in assay [4], in assay [5] and in assay [6] was > 100 µM (inactive) each time. The GI50 in [7] is over 100 µM; in assay [8], > 100 µM (inactive); in [9] it was > 100 µM (inactive); in assay [10], > 100 µM (inactive); in assay [11] it was > 100 µM (inactive); in [12], > 100 µM (inactive). Besides, the GI50 in [13], in assay [14], in assay [15], in assay [16], in assay [17] and in [18] was > 100 µM (inactive) throughout.
Consider `COc1nc(N)c(NC2OC(CO)C(O)C2O)c(=O)[nH]1` (stereo not given), for which the GI50 in assay [1], in assay [2], in assay [3], in [4], in [5] and in [6] was > 100 µM (inactive) each time. Moreover, the GI50 in [7] was over 100 µM; in [8], > 100 µM (inactive); in assay [9], > 100 µM (inactive); in assay [10], > 100 µM (inactive); in assay [11], > 100 µM (inactive); in assay [19], > 100 µM (inactive). The GI50 is > 100 µM (inactive) and 75.5 µM (inactive) in assay [12]; > 100 µM (inactive) in assay [13]; > 100 µM (inactive) in [14]; > 100 µM (inactive) in [15]; > 100 µM (inactive) in assay [16]; > 100 µM (inactive) in assay [17]. In addition, the GI50 in assay [18] was > 100 µM (inactive).
In the case of `COc1cc(S(=O)(=O)Nc2ccc(-c3csc(/N=C\c4cccs4)n3)cc2)ccc1Cl`, the GI50 is 31.8 µM (inactive) in [1]; > 100 µM (inactive) in assay [2]; 31.1 µM (inactive) in [3]; 29.4 µM (inactive) in assay [4]; 28.1 µM (inactive) in [5]; 29.4 µM (inactive) in assay [6]. Moreover, the GI50 in assay [7] was over 100 µM; in assay [8] it was 69.7 µM (inactive); in assay [9], 42.9 µM (inactive); in assay [10] it was 36.2 µM (inactive); in assay [11], 34.4 µM (inactive); in [12], 78 µM (inactive). For the same compound, the GI50 was > 100 µM (inactive) in assay [13]; > 100 µM (inactive) in [14]; 35.9 µM (inactive) in assay [15]; 19.2 µM (inactive) in [16]; 49.9 µM (inactive) in assay [17]; 51.8 µM (inactive) in assay [18].
Turning to `CCN(CC)P1(=S)Oc2ccc3ccccc3c2-c2c(ccc3ccccc23)O1`, the GI50 in [1] was > 100 µM (inactive); in [2], 67.3 µM (inactive); in assay [3] it was > 100 µM (inactive); in assay [4] it was > 100 µM (inactive); in assay [5] it was > 100 µM (inactive); in [6], 77.4 µM (inactive). Further, the GI50 in [7] is 63.4 µM; in assay [8], 89.3 µM (inactive); in assay [9], > 100 µM (inactive); in assay [10], > 100 µM (inactive); in assay [11] it was 51.2 µM (inactive); in assay [19], > 100 µM (inactive). For the same compound, the GI50 is 72.8 µM (inactive) in assay [12]; > 100 µM (inactive) in [13]; 99.3 µM (inactive) in [14]; > 100 µM (inactive) in assay [15]; 22.5 µM (inactive) in assay [16]; > 100 µM (inactive) in [17]. Besides, the GI50 in [18] is > 100 µM (inactive).
Take `Cc1cc(NC(=O)NC(=O)c2ccccc2N)ccc1Oc1ncc(Br)cn1`: the GI50 in [1] is < 0.0802 µM (active); in assay [2], 0.11 µM (active); in [3], < 0.01 µM (active); in assay [4], 0.0125 µM (active); in assay [5] it was 0.0826 µM (active); in assay [6], 0.0154 µM (active). Besides, the GI50 in assay [7] was under 0.0107 µM; in [8] it was < 0.011 µM (active); in assay [9] it was < 0.01 µM (active); in assay [10], 0.0139 µM (active); in assay [11], < 0.01 µM (active); in [19], < 0.0135 µM (active). For the same compound, the GI50 was < 0.01 µM (active) in assay [12]; < 0.01 µM (active) in assay [13]; 4.78 µM (inactive) in assay [14]; < 0.01 µM (active) in [15]; 0.359 µM (active) in assay [16]; 0.239 µM (active) in assay [17]. Further, the GI50 in assay [18] was 0.0655 µM (active).
Regarding `C/C=N\n1c(C)n[nH]c1=O`, the GI50 in assay [1], in assay [2], in assay [3], in assay [4], in assay [5] and in [6] was > 100 µM (inactive) in each case. Also, the GI50 in assay [7] was over 100 µM; in assay [8], > 100 µM (inactive); in [9] it was > 100 µM (inactive); in assay [10], > 100 µM (inactive); in assay [11] it was > 100 µM (inactive); in [19], > 100 µM (inactive). For the same compound, the GI50 in assay [12], in assay [13], in assay [14], in assay [15], in assay [16] and in assay [17] was > 100 µM (inactive) each time. Moreover, the GI50 in assay [18] is > 100 µM (inactive).
Take `COc1ccc2c3c1OC1c4[nH]c5ccccc5c4CC4(O)C(C2)N(C)CCC314` (stereo not given): the GI50 in assay [1] is 15.3 µM (inactive); in assay [2], 20.6 µM (inactive); in assay [3] it was 30.8 µM (inactive); in assay [4] it was 57.9 µM (inactive); in assay [5], 51.9 µM (inactive); in assay [6], 16.4 µM (inactive). Also, the GI50 in assay [7] was 46.6 µM; in [8] it was 64.1 µM (inactive); in assay [9], 15.3 µM (inactive); in assay [10], 20.1 µM (inactive); in assay [11], 17.3 µM (inactive); in assay [19], 16.7 µM (inactive). Further, the GI50 in assay [13] is 63.4 µM (inactive); in assay [14], 44.3 µM (inactive); in assay [15], 17.4 µM (inactive); in [16], 20.8 µM (inactive); in assay [17], 22.9 µM (inactive); in [18] it was 17.3 µM (inactive).
`COc1ccc(CCNC(=O)Cc2ccccc2CO)cc1OC`: the GI50 in assay [1], in assay [2], in assay [3], in assay [4], in assay [5] and in assay [6] was > 100 µM (inactive) each time. Besides, the GI50 was over 100 µM in assay [7]; > 100 µM (inactive) in assay [8]; > 100 µM (inactive) in assay [9]; > 100 µM (inactive) in [10]; > 100 µM (inactive) in assay [11]; > 100 µM (inactive) in [19]. For the same compound, the GI50 in assay [13], in assay [14], in assay [15], in assay [16], in [17] and in [18] was > 100 µM (inactive) each time.
Regarding `COc1cccc(C23CCCC(C2)N(C)CC3OC(=O)c2ccccc2)c1OC` (stereo not given), the GI50 in assay [1] is 34.7 µM (inactive); in [2] it was 32.7 µM (inactive); in assay [3], 14.5 µM (inactive); in [4], 36 µM (inactive); in assay [5] it was 24.5 µM (inactive); in [6], 22.9 µM (inactive). Besides, the GI50 in assay [7] was 22.5 µM; in assay [8], 15.6 µM (inactive); in [9], 18.8 µM (inactive); in assay [10], 20.1 µM (inactive); in assay [11], 16 µM (inactive); in assay [19], 18.4 µM (inactive). In addition, the GI50 in [12] was 16.6 µM (inactive); in [13] it was 20.7 µM (inactive); in [14], 24 µM (inactive); in assay [15], 28 µM (inactive); in [16], 20.3 µM (inactive); in assay [18], 25.8 µM (inactive).
Turning to `Cc1ccc(NC2=CC(=O)C(NO)c3ccccc32)cc1` (stereo not given), the GI50 was 16.3 µM (inactive) in [1]; 2.84 µM (inactive) in [2]; 3.66 µM (inactive) in assay [3]; 2.56 µM (inactive) in [4]; 2.15 µM (inactive) in [5]; 7.26 µM (inactive) in assay [6]. The GI50 in assay [7] was 2.79 µM; in assay [8], 1.53 µM (inactive); in assay [10] it was 2.93 µM (inactive); in assay [11], 2.61 µM (inactive); in assay [19], 2.74 µM (inactive); in [13], 2.08 µM (inactive). Further, the GI50 in assay [14] was 2.99 µM (inactive); in assay [15], 8.13 µM (inactive); in assay [16], 2.74 µM (inactive); in [17], 16.8 µM (inactive); in assay [18], 1.73 µM (inactive).
Turning to `O=S(=O)(O)c1cc(Nc2ccnc3ccccc23)c2c(S(=O)(=O)O)cc(S(=O)(=O)O)cc2c1`, the GI50 in assay [1] was > 100 µM (inactive); in assay [3] it was > 100 µM (inactive); in assay [4] it was > 100 µM (inactive); in [5], > 100 µM (inactive); in [6] it was > 100 µM (inactive); in assay [7] it was over 100 µM. Further, the GI50 in [8], in assay [10], in assay [11], in assay [19], in assay [12] and in [13] was > 100 µM (inactive) throughout. In addition, the GI50 in [14], in [15], in assay [16], in assay [17] and in assay [18] was > 100 µM (inactive) in each case.
